# Source: patent US5627169A, “Selective antagonists for GABArho receptor” (The Regents of The University of California, priority 1994, dated 1997)
# Experiments:
# [1] = tested on: GABArho receptors; conditions: cited from earlier work
# [2] = tested on: GABArho receptors expressed by bovine retina RNA; test: Electrical recording in Xenopus oocytes expressing GABArho receptors from bovine retina RNA; type: cell-based
# Description: (§1) Electrical recording techniques and the Xenopus oocyte expression system were used to determine the sensitivity of a variety of commonly used GABAA and GABAB receptor ligands to GABArho receptors expressed by bovine retina RNA.
# [3] = tested on: GABAA receptors expressed by rat brain mRNA; test: Xenopus oocytes expressing GABAA receptors from rat brain mRNA; type: cell-based
# [4] = tested on: GABAA receptors expressed by bovine retina mRNA; test: Xenopus oocytes expressing GABAA receptors from bovine retina mRNA; type: cell-based
# Description: as §1
# When a methylphosphinic acid substituent was used to replace the carboxyl group of GABA in this compound, affects at GABAA receptors were prohibited, but relatively strong interactions at closed channel binding sites on GABArho receptors were detected.
# [5] = molecular target: T1, cloned GABArho receptors (Homo sapiens, UniProt P24046); test: Membrane currents in Xenopus oocytes expressing cloned GABArho receptors; type: cell-based
# T1 construct: expressed in transfected cells; host or cells: Xenopus oocytes injected with cloned receptor RNA
# Description: (§2) To test the new compounds synthesized, Xenopus oocytes were injected with the cloned GABA RNA and other oocytes were injected with native poly (A)^+ RNAs extracted from the rat cerebral cortex or spinal cord, bovine brain, rabbit brain, chick brain or optic lobe. […] The various concentrations of compound 7 were applied together with 10^-5M GABA.
# To study the time to onset of antagonistic action by TPMPA, a timed trial utilizing pulsed application of GABA (10^-5 M) and TPMPA (8×10^-5 M) was begun. At the first marker pulse of 50 nA, GABA administration of GABA was begun. TPMPA was applied between the 2nd and 3rd markers, and normal Ringers solution (without GABA) was applied at the 4th marker pulse.
# [6] = tested on: GABAA receptors expressed by native mRNAs from the brain; test: Xenopus oocytes expressing GABAA receptors from native brain mRNAs of different animal species; type: cell-based
# Description: as §2
# [7] = tested on: chick brain GABAA receptors; test: Membrane currents in Xenopus oocyte expressing chick brain GABAA receptors; type: cell-based; conditions: various concentrations applied together with 10^-5 M GABA
# Description: as §2
# [8] = pulsed application of GABA 10^-5 M and TPMPA 8×10^-5 M
# T1 sequence (P24046 22-479): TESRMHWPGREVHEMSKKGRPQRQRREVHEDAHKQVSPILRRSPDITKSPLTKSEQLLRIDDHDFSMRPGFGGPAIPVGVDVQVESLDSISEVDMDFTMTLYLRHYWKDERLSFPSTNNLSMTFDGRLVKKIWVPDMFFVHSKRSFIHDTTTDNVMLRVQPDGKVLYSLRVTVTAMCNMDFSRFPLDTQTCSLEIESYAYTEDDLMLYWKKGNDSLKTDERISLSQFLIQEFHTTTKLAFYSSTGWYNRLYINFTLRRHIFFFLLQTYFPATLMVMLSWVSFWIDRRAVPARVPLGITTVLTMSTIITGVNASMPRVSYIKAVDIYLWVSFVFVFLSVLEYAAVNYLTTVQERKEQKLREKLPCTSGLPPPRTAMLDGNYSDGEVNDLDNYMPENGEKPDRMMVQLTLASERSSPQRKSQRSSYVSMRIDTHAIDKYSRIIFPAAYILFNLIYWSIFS
compound,measurement,setting,value
CN1CCc2cc3c(cc2[C@H]1[C@@H]1OC(=O)c2c1ccc1c2OCO1)OCO3 [bicuculline],sensitivity of GABArho receptors,[1],insensitive
O=C(O)C1CCNCC1 [isonipecotic acid],action on GABArho receptors,[2],either as weak partial agonists or as competitive antagonists
CP(=O)(O)CCCN [3-aminopropyl(methyl-)phosphinic acid],effects on GABAA receptors,[3],no detectable effects
same,effects on GABAA receptors,[4],no detectable effects
same,Ki,[2]; read-out: Ki as competitive antagonist at GABArho receptors,800 nM
O=C(O)C1=CCNCC1 [isoguvacine],action on GABArho receptors,[2],either as weak partial agonists or as competitive antagonists
"Oc1noc2c1CCNC2 [THIP, 4,5,6,7-tetrahydroisoxazolo-[5,4-c]-pyridin-3-ol]",action on GABArho receptors,[2],either as weak partial agonists or as competitive antagonists
"CP(=O)(O)C1=CCNCC1 [Compound 7a, 1,2,5,6-tetrahydropyridine-4-methylphosphinic acid]",effect on membrane current response to GABA,[5]; 8×10^-5 M compound applied together with 10^-5 M GABA,abolishes almost completely the response to GABA
same,antagonism of GABArho receptors,[5]; expressed by cloned GABArho receptor RNA,potent and selective antagonist
same,onset of antagonistic action,[5]; [8],rapid in onset
same,recovery from antagonistic action,[5]; [8],recovery was also rapid
same,blockage of GABAA receptors compared with GABArho receptors,[6],blockage was less than that of GABArho receptors
same,attenuation of currents elicited by activation of GABAA receptors,[7],not greatly attenuated until quite high concentration were used
same,antagonism of GABArho receptors,[2]; expressed by native bovine retina mRNA,potent and selective antagonist
NCC(CC(=O)O)c1ccc(Cl)cc1 (stereo not drawn) [baclofen],sensitivity of GABArho receptors,[1],insensitive
